According to patent US6348614B1 (priority 1996, dated 2002):

Test system: P.infestans (A2 mating type, resistant to metalaxyl)
Format: in vivo, Phytophthora infestans
Settings: Potato, 500 ppm, 6 days after inoculation

In the case of `CCCCCCCOC(=O)CC(C)NC(=O)c1c(F)cccc1F` (stereo not shown) [compound 14, D,L N-2,6-difluorobenzoyl-3-aminobutyric acid heptyl ester], the “Control efficacy (%) 6d” value is reported as 79%.

With `CCC(C)OC(=O)CC(C)NS(=O)(=O)c1ccc(C)cc1` (stereo not shown) [compound 20, D,L N-4-methylbenzenesulfonyl-3-aminobutyric 1-methylpropyll ester] the “Control efficacy (%) 6d” value was 75%.

`CC(CC(=O)OCCC(Cl)(Cl)Cl)NS(=O)(=O)c1ccccc1` (stereo not shown) [compound 19, D,L N-benzenesulfonyl-3-aminobutyric acid 2-(trichloromethyl)ethyl ester] was tested, and the “Control efficacy (%) 6d” value was 75%.

With `CCCC(C)OC(=O)CC(C)NC(=O)c1ccc(C)c(C)c1` (stereo not shown) [compound 21, D,L N-3,4-dimethylbezoyl-3-aminobutyric acid 1-methylbutyl ester] the “Control efficacy (%) 6d” value was 73%.

With `CCCCCCCOC(=O)CC(C)NC(=O)c1cccc(C)c1` (stereo not shown) [compound 22, D,L N-3-methylbezoyl-3-aminobutyric acid heptyl ester] the “Control efficacy (%) 6d” value was 70%.

For `CCCCC(C)OC(=O)CC(C)NC(=O)c1ccccc1NC` (stereo not shown) [compound 52, D,L N-2-methylaminobenzoyl-3-aminobutyric acid 1-methylpentyl ester], the “Control efficacy (%) 6d” value was 74%.

For `CC(CC(=O)OCCCc1ccccc1)NS(=O)(=O)c1ccccc1` (stereo not shown) [compound 51, D,L N-benzensulphonyl-3-aminobutyric acid 3-phenylpropyl ester], the “Control efficacy (%) 6d” value was 76%.

`CCCCC(C)OC(=O)CC(C)NS(=O)(=O)c1ccc(Cl)cc1` (stereo not shown) [compound 50, D,L N-4-chlorobenzensulfonyl-3-aminobutyric acid 1-methylpentyl ester] was tested, and the “Control efficacy (%) 6d” value was 77%.

In the case of `CCCCCCCCOC(=O)CC(C)NC(=O)c1ccc(-c2cccs2)cc1` (stereo not shown) [compound 48, D,L N-4-2-thiophenebenzoyl-3-aminobutyric acid octyl ester], the “Control efficacy (%) 6d” value is reported as 82%.

In the case of `CCCCCCCOC(=O)CC(C)NC(=O)c1ccc(C(C)(C)C)cc1` (stereo not shown) [compound 15, D,L N-4-tertbutylbenzoyl-3-aminobutyric acid heptyl ester], the “Control efficacy (%) 6d” value is reported as 79%.

With `CCCCCCCOC(=O)CC(C)NC(=O)c1cc(C)cc(C)c1` (stereo not shown) [compound 13, D,L N-3,5-dimethylbezoyl-3-aminobutyric acid heptyl ester] the “Control efficacy (%) 6d” value was 84%.

For `CCCCC(C)OC(=O)CC(C)NC(=O)c1ccc(-c2cccs2)cc1` (stereo not shown) [compound 49, D,L N-4-2-thiophenebenzoyl-3-aminobutyric acid 1-methylpentyl ester], the “Control efficacy (%) 6d” value was 75%.

`CCCCC(C)OC(=O)CC(C)NC(=O)c1ccc(Cl)cc1` (stereo not shown) [compound 18, D,L N-4-cholrobenzoyl-3-aminobutyric acid 1-methylpentyl ester] was tested, and the “Control efficacy (%) 6d” value was 76%.

For `CC(CC(=O)OCCCc1ccccc1)NS(=O)(=O)c1ccccc1` (stereo not shown) [compound 17, D,L N-benzenesulfonyl-3-aminobutyric acid 3-phenylpropyl ester], the “Control efficacy (%) 6d” value was 76%.

With `CCCCC(C)OC(=O)CC(C)NS(=O)(=O)c1ccc(C)cc1` (stereo not shown) [compound 16, D,L N-4-methylbenzenesulfonyl-3-aminobutyric acid i-methylpentyl ester] the “Control efficacy (%) 6d” value was 79%.

With `CCCCCCCOC(=O)CC(C)NC(=O)c1ccc(OC)cc1` (stereo not shown) [compound 12, D,L N-4-methoxybenzoyl-3-aminobutyric acid heptyl ester] the “Control efficacy (%) 6d” value was 89%.
